We go through two compounds from article PMC4774911, “Biochemical Screening of Five Protein Kinases from Plasmodium falciparum against 14,000 Cell-Active Compounds” (PLoS ONE, 2016).

The structures appear in SMILES notation. “And” between values parts separate entries of the source, which are not always exact repeats. Equal entries are not always repeated.

Holding throughout (experiment): biochemical
Holding throughout (parameters): endogenous in cells; host or cells: K562 cell extract; species or system K562 (extract); replicate k of n = 2 (each experiment ID is one independent experiment; two experiment IDs per compound)
What all share (settings): read-out: KDapp

One experiment has as its target T1, STK4 (Homo sapiens, UniProt Q13043).
T1 sequence (Q13043 1-487): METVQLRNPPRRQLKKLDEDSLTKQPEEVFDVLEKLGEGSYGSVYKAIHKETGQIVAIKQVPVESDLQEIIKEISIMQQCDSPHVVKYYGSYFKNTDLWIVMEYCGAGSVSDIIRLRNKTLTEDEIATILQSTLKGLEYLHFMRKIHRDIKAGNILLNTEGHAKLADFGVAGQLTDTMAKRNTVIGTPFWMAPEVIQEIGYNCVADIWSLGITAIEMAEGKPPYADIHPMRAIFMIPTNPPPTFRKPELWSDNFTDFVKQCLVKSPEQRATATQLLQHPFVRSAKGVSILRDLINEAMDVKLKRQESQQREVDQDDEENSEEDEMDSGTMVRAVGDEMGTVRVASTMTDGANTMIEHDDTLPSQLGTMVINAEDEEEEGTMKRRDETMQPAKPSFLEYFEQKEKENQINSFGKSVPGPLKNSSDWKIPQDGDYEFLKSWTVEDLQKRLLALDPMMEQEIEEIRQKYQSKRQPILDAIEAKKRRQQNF

For a further experiment, the target named is T2, TTK (Homo sapiens, UniProt P33981).
T2 sequence (P33981 1-857): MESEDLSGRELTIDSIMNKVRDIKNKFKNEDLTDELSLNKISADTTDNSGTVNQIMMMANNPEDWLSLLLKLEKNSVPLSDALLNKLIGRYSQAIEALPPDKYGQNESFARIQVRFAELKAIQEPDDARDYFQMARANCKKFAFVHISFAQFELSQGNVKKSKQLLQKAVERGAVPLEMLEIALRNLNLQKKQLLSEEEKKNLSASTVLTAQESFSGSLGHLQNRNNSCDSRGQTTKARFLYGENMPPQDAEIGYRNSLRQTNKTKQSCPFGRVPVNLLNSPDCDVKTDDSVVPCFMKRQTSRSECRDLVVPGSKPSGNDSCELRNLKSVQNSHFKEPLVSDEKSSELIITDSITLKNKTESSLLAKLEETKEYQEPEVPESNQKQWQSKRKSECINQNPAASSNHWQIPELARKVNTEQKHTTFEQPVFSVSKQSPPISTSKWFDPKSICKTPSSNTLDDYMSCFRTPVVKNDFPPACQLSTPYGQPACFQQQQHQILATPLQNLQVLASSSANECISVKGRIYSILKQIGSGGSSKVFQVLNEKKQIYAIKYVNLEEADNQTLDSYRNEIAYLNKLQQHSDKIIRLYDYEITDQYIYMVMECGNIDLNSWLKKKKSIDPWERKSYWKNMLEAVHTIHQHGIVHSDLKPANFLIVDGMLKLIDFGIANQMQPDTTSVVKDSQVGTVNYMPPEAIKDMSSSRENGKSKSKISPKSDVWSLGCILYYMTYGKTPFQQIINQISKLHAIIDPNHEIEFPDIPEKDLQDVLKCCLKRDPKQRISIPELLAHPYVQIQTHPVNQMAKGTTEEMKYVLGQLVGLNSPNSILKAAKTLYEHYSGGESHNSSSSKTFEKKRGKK

The next experiment deals with T3, AURKA (Homo sapiens, UniProt O14965).
T3 sequence (O14965 1-403): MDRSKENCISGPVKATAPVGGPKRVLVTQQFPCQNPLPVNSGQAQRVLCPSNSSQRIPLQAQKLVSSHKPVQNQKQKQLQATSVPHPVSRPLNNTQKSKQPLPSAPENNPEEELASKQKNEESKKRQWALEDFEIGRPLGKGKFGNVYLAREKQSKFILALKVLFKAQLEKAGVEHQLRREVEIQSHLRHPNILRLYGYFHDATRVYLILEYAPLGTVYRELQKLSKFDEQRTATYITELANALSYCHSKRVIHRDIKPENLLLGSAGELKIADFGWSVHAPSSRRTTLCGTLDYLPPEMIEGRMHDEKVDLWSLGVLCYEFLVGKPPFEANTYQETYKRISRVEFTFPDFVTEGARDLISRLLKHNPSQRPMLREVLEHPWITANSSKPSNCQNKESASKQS

Another experiment has as its target CDK5 (Homo sapiens, UniProt Q00535).
The target in a further experiment is TAOK1 (Homo sapiens, UniProt Q7L7X3).
Sequence of TAOK1 (Q7L7X3 whole entry): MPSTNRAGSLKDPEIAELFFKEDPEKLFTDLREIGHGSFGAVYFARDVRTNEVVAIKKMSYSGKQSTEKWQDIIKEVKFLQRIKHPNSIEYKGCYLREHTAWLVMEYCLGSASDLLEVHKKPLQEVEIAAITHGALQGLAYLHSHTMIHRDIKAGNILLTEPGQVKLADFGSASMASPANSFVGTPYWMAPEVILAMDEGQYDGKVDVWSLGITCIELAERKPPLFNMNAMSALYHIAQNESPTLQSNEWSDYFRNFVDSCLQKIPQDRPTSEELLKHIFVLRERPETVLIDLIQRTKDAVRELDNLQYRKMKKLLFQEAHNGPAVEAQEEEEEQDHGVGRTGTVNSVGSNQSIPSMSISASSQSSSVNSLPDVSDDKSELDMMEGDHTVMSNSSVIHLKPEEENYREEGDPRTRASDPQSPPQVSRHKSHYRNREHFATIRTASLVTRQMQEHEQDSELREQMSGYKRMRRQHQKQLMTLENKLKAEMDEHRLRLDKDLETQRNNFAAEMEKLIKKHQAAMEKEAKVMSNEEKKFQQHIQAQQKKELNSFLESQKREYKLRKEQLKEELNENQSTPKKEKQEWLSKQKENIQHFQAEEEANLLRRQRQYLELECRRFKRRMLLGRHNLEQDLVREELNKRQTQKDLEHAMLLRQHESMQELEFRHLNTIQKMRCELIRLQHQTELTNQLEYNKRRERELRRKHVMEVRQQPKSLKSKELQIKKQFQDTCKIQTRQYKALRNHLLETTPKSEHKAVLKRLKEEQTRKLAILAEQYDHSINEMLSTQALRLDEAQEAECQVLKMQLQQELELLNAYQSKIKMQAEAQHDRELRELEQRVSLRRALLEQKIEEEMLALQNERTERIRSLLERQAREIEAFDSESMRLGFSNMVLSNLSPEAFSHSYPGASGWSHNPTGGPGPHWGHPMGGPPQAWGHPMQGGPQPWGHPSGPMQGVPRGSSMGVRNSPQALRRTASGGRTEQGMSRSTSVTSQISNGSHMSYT

Sequence of CDK5 (Q00535 whole entry): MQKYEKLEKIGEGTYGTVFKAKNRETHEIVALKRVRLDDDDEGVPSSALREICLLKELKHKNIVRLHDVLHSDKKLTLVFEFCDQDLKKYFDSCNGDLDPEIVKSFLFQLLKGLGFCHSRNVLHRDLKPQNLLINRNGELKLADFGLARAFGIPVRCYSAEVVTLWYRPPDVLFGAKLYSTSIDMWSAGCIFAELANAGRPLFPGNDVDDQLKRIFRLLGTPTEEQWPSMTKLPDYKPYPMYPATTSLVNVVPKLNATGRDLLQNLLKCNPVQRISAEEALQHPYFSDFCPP

Turning to `CN1CCN(c2ccc(Nc3ncc(C#N)c(Nc4ccccc4C(N)=O)n3)cc2)CC1.Cl` [TCMDC-134116], the Kd is 121 nM and 140 nM on STK4; 439 nM and 357 nM on TTK; 12.3 nM at AURKA; 40.5 nM and 66.5 nM at CDK5.
For the compound `CN(C)CC(O)COc1ccc(Nc2ncc([N+](=O)[O-])c(Nc3ccccc3O)n2)cc1.O=C(O)C(F)(F)F` (centres unmarked) [TCMDC-141399], the Kd on TAOK1 was 4300 nM.
